Experimental findings from article PMC4601599, “High-resolution structures of Lactobacillus salivarius transketolase in the presence and absence of thiamine pyrophosphate” (Acta Crystallographica. Section F, Structural Biology …, 2015) are described below.

In series [1] the target is T1, LsTktA (Lactobacillus salivarius UCC118 transketolase) (Ligilactobacillus salivarius, UniProt Q1WQU8).
T1 construct: gene tktA; pOPINF, His-tagged, expressed in E. coli Rosetta pLysS (DE3); 680 residues with tag; 662 residues modelled; homodimer; megaplasmid pMP118-encoded
T1 sequence (Q1WQU8 1-663): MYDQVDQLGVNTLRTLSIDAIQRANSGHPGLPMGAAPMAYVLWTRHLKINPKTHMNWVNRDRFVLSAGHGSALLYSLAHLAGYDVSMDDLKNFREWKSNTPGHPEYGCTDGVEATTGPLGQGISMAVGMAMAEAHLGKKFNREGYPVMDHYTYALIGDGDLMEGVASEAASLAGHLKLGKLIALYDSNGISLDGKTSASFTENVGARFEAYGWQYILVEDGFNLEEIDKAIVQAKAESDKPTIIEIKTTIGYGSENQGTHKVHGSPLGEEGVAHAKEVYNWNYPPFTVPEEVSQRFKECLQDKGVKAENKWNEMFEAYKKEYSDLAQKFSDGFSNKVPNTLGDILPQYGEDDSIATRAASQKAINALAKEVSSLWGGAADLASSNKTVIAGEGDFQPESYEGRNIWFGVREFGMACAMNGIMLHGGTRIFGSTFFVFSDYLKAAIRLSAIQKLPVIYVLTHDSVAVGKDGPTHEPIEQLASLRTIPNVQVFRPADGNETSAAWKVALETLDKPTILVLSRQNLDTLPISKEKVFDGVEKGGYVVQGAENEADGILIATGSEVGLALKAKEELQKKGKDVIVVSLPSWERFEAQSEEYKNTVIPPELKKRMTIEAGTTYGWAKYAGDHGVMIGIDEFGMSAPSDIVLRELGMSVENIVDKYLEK
Kind of series: X-ray crystal structure of co-crystal, […] A. It is filed as binding. The following applies: Mg2+; co-crystallised with 0.5 mM TPP and 2 mM MgCl2; pH 7.5; 293 K; site at dimer interface.

Series [2] deals with the molecule itself. The series is described as follows: SEC-MALS; Superdex 200 Increase 10/300 GL, 20 mM Tris-HCl pH 7.5, 200 mM NaCl, 0.5 mM TCEP, 20 C, with and without 0.5 mM TPP; about 1 mg/ml; dimer and monomer.

On to `Cc1ncc(C[n+]2csc(CCOP(=O)(O)OP(=O)(O)O)c2C)c(N)n1` [thiamine pyrophosphate], for which the “X-ray crystal structure of co-crystal, 2.29 A” value in series [1] is on record as “Two symmetrical TPP cofactor-binding sites are located at the LsTktA dimer interface”.

B1: Lactobacillus salivarius UCC118 transketolase (LsTktA) (enzyme, UniProt Q1WQU8 1-663, looked up)
chain: T1 sequence (Q1WQU8 1-663)
notes: Transketolase (tktA, LSL_1946) of Lactobacillus salivarius UCC118, encoded on the megaplasmid pMP118; the histidine-tagged protein consists of 680 amino acids; 662 amino acids are modelled in the crystal structures; Crystallised apo and with TPP and Mg2+; also called L. salivarius Tkt; LSL_1946; source: E. coli Rosetta pLysS (DE3), purified (nickel-chelation chromatography, gel filtration)
In the case of B1, in series [2], the “stoichiometry N” value was determined as 2.
